Source: patent US20100056524A1, “Compound” (priority 2008, published 2010)
Structures can show the parent of a compound that is named as a salt. Where two headings read alike, the source gives them in different places.

Columns and labels:
Format in all cases: biochemical
PRK2 = molecular target: T1, PRK2 (Homo sapiens, UniProt Q16513); assay: PRK2 protein kinase assay; conditions: for remaining activity at 10 µM: 10 μM compound; for residual kinase activity PRK2: 1 μm compound; for remaining activity at 1 µM: 1 μM compound
T1 construct: All protein kinases were of human origin and encoded full length proteins, unless indicated otherwise; made in house
From the text: (§1) All protein kinases were of human origin and encoded full length proteins, unless indicated otherwise. They were either expressed as glutathione S-transferase (GST) fusion proteins in Escherichia Coli or as hexahistidine (His6)-tagged proteins in insect Sf21 cells. GST fusion proteins were purified by affinity chromatography on glutathione-Sepharose, and His6-tagged proteins on nickel/nitriloacetate-agarose. The procedures for expressing some of the protein kinases used herein have been detailed previously.^8,9 The following sections outline the DNA vectors synthesised and the procedures used to express and purifying protein kinases that have not been reported previously.
(§2) All assays (25.5 μl) were carried out at room temperature (21° C.) and were linear with respect to time and enzyme concentration under the conditions used. Assays were performed for 30 min using Multidrop Micro reagent dispensers (Thermo Electron Corporation, Waltham, Mass. 02454, USA) in a 96-well format. The concentration of magnesium acetate in the assays was 10 mM and the [γ-33P] ATP (800 cpm/pmol) was used at 5, 20 or 50 μM as indicated, in order to be at or below the Km for ATP for each enzyme. Protein kinases assayed at 5 μM ATP were: —ERK1, ERK8, PKBα, MARK3, Aurora C. Protein kinases assayed at 20 μM ATP were: —JNK1, PDK1, CHK1, CHK2, CDK2 and Aurora B. Protein kinases assayed at 50 μM ATP were: —MNK2, IKKepsilon and TBK1.
(§3) The assays were initiated with MgATP, stopped by addition of 5 μl of 0.5 M orthophosphoric acid and spotted on to P81 filterplates using a unifilter harvester (PerkinElmer, Boston, Mass. 02118, USA). The IC50 values of inhibitors were determined after carrying out assays at 10 different concentrations of each compound.
(§4) Unless stated otherwise, enzymes were diluted in 50 mM Tris/HCl pH 7.5, 0.1 mM EGTA, 1 mg/ml BSA, 0.1% (v/v) 2-mercaptoethanol and assayed in 50 mM Tris/HCl pH 7.5, 0.1 mM EGTA, 0.1% (v/v) 2-mercaptoethanol.

JNK2 = molecular target: T2, JNK2 (Homo sapiens, UniProt P45984); assay: JNK2 protein kinase assay; conditions: for remaining activity at 10 µM: 10 μM compound; for residual kinase activity JNK2: 1 μm compound; for remaining activity at 1 µM: 1 μM compound
T2 construct: All protein kinases were of human origin and encoded full length proteins, unless indicated otherwise; made in house
From the text: as §1
In order to produce activated forms of Aurora B and Aurora C, insect Sf21 cells were incubated for 1 h with the protein phosphatase inhibitor okadaic acid (50 nM). JNK isoforms were activated with MKK4 and MKK7, MNK2 with p38α MAPkinase; PKBα, PKBβ, with PDK1, and ERK1 with MKK1. To activate CDK2, bacterial pellets expressing cyclin A2 and CDK2 were mixed together, lyse and purified on glutathione Sepharose. The GST-tags were removed by cleavage with PreScission protease and the CDK2-cyclin A2 complex purified by chromatography on SP-Sepharose. It was then activated with CAK1/CDK7 followed by chromatography on nickel-nitrilotriacetate agarose to remove CAK1/CDK7, which binds to this column by virtue of its C-terminal His6 tag. All the other protein kinases were active as expressed.
as §2, §3, §4

MST4 = molecular target: T3, MST4 (Homo sapiens, UniProt Q9P289); assay: MST4 protein kinase assay; conditions: for remaining activity at 10 µM: 10 μM compound; for residual kinase activity MST4: 1 μm compound; for remaining activity at 1 µM: 1 μM compound
T3 construct: All protein kinases were of human origin and encoded full length proteins, unless indicated otherwise; made in house
From the text: as §1, §2, §3, §4

MST2 = molecular target: T4, MST2 (Homo sapiens, UniProt Q13188); assay: MST2 protein kinase assay; conditions: for remaining activity at 10 µM: 10 μM compound; for residual kinase activity MST2: 1 μm compound; for remaining activity at 1 µM: 1 μM compound
T4 construct: All protein kinases were of human origin and encoded full length proteins, unless indicated otherwise; made in house
T4 sequence (Q13188 1-491): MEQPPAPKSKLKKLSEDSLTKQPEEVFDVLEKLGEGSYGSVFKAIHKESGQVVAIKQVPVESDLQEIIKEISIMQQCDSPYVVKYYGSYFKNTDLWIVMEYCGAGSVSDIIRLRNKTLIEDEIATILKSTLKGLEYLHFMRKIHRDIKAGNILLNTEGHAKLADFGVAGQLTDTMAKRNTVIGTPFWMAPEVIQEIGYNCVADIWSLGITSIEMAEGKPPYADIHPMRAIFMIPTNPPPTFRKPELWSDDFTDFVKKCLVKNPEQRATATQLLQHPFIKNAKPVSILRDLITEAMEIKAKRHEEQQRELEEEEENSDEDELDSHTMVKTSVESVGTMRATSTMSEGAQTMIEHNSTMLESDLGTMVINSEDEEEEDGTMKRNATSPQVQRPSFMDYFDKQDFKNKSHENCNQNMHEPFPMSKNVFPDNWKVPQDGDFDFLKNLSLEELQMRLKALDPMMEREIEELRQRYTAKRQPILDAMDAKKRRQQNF
From the text: as §1, §2, §3, §4

PAK6 = molecular target: T5, PAK6 (Homo sapiens, UniProt Q9NQU5); assay: PAK6 protein kinase assay; conditions: for remaining activity at 10 µM: 10 μM compound; for residual kinase activity PAK6: 1 μm compound; for remaining activity at 1 µM: 1 μM compound
T5 construct: All protein kinases were of human origin and encoded full length proteins, unless indicated otherwise; made in house
From the text: as §1, §2, §3, §4

SRPK1 = molecular target: T6, SRPK1 (Homo sapiens, UniProt Q96SB4); assay: SRPK1 protein kinase assay; conditions: for remaining activity at 10 µM: 10 μM compound; for residual kinase activity SRPK1: 1 μm compound; for remaining activity at 1 µM: 1 μM compound
T6 construct: All protein kinases were of human origin and encoded full length proteins, unless indicated otherwise; made in house
From the text: as §1, §2, §3, §4

p38g MAPK = molecular target: T7, p38g MAPK (Homo sapiens, UniProt P53778); assay: p38g MAPK protein kinase assay; conditions: for remaining activity at 10 µM: 10 μM compound; for residual kinase activity p38g MAPK: 1 μm compound; for remaining activity at 1 µM: 1 μM compound
T7 construct: All protein kinases were of human origin and encoded full length proteins, unless indicated otherwise; made in house
T7 sequence (P53778 1-367): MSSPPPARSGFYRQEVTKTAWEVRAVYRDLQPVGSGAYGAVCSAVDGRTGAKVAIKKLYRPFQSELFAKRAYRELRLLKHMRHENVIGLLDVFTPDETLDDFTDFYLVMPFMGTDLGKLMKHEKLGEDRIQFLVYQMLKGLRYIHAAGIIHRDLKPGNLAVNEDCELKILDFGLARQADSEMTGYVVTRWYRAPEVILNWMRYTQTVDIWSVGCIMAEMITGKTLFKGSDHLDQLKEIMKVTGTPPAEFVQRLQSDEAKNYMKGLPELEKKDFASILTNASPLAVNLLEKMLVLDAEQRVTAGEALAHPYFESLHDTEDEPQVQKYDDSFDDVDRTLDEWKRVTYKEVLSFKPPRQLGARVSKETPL
From the text: as §1, §2, §3, §4

[1] = read-out: residual kinase activity PRK2
[2] = read-out: residual kinase activity JNK2
[3] = read-out: residual kinase activity MST4
[4] = read-out: residual kinase activity MST2
[5] = read-out: residual kinase activity PAK6
[6] = read-out: residual kinase activity SRPK1
[7] = read-out: residual kinase activity p38g MAPK
[8] = PRK2, read-out: residual kinase activity
[9] = JNK2, read-out: residual kinase activity
[10] = MST4, read-out: residual kinase activity
[11] = MST2, read-out: residual kinase activity
[12] = PAK6, read-out: residual kinase activity
[13] = SRPK1, read-out: residual kinase activity
[14] = p38g MAPK, read-out: residual kinase activity

T6 sequence (Q96SB4 whole entry): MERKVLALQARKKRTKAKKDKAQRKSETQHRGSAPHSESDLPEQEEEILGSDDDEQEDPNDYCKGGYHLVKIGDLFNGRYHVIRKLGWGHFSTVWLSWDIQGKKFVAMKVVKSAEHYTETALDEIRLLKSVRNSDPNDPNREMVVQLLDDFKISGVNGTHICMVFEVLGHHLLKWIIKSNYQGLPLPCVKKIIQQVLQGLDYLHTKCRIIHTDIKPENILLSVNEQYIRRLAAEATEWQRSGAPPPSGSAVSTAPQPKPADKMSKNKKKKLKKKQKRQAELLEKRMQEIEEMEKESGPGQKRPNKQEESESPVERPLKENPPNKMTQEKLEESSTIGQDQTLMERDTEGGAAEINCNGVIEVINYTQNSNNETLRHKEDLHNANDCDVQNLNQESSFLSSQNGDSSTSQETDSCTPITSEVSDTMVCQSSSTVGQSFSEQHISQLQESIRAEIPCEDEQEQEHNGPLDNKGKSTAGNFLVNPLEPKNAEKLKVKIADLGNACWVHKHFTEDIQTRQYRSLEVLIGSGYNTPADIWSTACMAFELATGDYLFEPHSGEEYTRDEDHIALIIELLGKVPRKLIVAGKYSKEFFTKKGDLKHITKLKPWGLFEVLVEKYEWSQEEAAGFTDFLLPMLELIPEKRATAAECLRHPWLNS
T2 sequence (P45984 whole entry): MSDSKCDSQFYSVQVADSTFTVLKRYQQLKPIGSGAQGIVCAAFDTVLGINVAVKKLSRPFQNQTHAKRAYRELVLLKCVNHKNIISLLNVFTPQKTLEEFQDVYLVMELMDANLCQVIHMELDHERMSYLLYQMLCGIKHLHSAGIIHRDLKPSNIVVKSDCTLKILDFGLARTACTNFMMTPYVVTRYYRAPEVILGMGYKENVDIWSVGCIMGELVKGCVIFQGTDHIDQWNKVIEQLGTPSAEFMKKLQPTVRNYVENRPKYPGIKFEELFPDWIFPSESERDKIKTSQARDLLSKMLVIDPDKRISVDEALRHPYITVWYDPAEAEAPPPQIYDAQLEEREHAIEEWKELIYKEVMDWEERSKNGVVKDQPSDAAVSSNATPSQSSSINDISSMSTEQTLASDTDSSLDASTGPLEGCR
T3 sequence (Q9P289 whole entry): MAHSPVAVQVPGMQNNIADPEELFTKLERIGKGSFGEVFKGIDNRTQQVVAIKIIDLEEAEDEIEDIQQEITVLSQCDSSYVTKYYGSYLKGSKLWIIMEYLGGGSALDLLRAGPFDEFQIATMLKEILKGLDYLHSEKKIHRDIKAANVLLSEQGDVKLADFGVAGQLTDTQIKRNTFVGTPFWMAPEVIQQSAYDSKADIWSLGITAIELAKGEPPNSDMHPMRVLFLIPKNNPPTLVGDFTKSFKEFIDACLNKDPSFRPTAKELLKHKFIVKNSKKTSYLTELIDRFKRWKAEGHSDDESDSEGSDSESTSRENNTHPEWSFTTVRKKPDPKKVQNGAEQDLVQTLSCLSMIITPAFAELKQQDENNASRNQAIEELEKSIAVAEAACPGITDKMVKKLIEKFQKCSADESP
T1 sequence (Q16513 501-984 limits assumed): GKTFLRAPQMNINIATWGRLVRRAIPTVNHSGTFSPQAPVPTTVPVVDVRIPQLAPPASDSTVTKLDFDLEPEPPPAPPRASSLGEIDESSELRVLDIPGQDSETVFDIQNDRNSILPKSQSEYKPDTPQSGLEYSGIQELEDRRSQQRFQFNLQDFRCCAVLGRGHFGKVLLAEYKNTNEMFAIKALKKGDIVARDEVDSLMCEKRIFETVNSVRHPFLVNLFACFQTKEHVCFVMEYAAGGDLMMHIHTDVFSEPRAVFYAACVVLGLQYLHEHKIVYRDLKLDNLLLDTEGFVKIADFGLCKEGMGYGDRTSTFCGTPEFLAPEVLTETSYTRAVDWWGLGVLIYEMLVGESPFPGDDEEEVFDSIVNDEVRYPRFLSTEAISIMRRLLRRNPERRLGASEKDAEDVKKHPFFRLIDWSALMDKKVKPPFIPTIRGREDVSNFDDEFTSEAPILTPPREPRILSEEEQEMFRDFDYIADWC
T5 sequence (Q9NQU5 whole entry): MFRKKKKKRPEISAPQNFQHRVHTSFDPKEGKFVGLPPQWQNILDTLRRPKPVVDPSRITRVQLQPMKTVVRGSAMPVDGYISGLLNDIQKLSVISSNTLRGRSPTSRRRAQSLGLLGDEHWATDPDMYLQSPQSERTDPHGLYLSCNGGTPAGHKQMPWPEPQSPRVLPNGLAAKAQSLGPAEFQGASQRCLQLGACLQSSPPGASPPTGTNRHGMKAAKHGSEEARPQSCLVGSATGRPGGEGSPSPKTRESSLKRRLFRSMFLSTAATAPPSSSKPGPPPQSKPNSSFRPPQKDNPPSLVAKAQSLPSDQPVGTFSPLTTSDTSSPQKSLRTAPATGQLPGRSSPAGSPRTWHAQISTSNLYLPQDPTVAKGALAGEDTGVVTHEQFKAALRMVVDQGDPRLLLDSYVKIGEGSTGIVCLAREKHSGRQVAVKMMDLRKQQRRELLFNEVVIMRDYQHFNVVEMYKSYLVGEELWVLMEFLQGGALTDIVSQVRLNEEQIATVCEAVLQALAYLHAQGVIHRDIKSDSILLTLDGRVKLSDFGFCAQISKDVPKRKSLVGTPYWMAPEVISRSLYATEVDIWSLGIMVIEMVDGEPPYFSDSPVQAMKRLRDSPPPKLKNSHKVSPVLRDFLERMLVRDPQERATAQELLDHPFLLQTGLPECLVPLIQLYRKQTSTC

Row | Compound | remaining activity at 10 µM (PRK2; [1]) [%] | residual kinase activity PRK2 (PRK2) [%] | remaining activity at 10 µM (JNK2; [2]) [%] | residual kinase activity JNK2 (JNK2) [%] | remaining activity at 10 µM (MST4; [3]) [%] | residual kinase activity MST4 (MST4) [%] | remaining activity at 1 µM (PRK2; [8]) [%] | remaining activity at 10 µM (PRK2; [8]) [%] | remaining activity at 1 µM (JNK2; [9]) [%] | remaining activity at 10 µM (JNK2; [9]) [%] | remaining activity at 1 µM (MST4; [10]) [%] | remaining activity at 10 µM (MST4; [10]) [%] | remaining activity at 1 µM (MST2; [11]) [%] | remaining activity at 10 µM (MST2; [11]) [%] | remaining activity at 1 µM (PAK6; [12]) [%] | remaining activity at 10 µM (PAK6; [12]) [%] | remaining activity at 1 µM (SRPK1; [13]) [%] | remaining activity at 10 µM (SRPK1; [13]) [%] | remaining activity at 1 µM (p38g MAPK; [14]) [%] | remaining activity at 10 µM (p38g MAPK; [14]) [%] | other results
1 | O=C(NCCCNc1nc(Nc2cccc(F)c2)ncc1Br)C1CCC1 [Compound A, cyclobutanecarboxylic acid {3-[5-bromo-2-(3-fluoro-phenylamino)-pyrimidin-4-ylamino]-propyl}-amide, reference compound] | 4 | 24 | 5 | 40 | 47 | 90 |  |  |  |  |  |  |  |  |  |  |  |  |  |  | remaining activity at 10 µM (MST2; [4]): 6%; residual kinase activity MST2 (MST2): 29%; remaining activity at 10 µM (PAK6; [5]): 14%; residual kinase activity PAK6 (PAK6): 45%; remaining activity at 10 µM (SRPK1; [6]): 31%; residual kinase activity SRPK1 (SRPK1): 69%; remaining activity at 10 µM (p38g MAPK; [7]): 17%; residual kinase activity p38g MAPK (p38g MAPK): 65%
2 | O=C(NCCCNc1nc(Nc2cccc(F)c2)ncc1C1CC1)C1CCC1 [Example 23, Cyclobutanecarboxylic acid {3-[5-cyclopropyl-2-(3-fluoro-phenylamino)-pyrimidin-4-ylamino]-propyl}-amide] | 60 | 67 | 55 | 78 | 56 | 94 | 67 | 60 | 78 | 55 | 94 | 56 | 73 | 33 | 82 | 50 | 75 | 40 | 81 | 91 | remaining activity at 10 µM (MST2; [4]): 33%; residual kinase activity MST2 (MST2): 73%; remaining activity at 10 µM (PAK6; [5]): 50%; residual kinase activity PAK6 (PAK6): 82%; remaining activity at 10 µM (SRPK1; [6]): 40%; residual kinase activity SRPK1 (SRPK1): 75%; remaining activity at 10 µM (p38g MAPK; [7]): 91%; residual kinase activity p38g MAPK (p38g MAPK): 81%
3 | O=C(NCCCNc1nc(Nc2cccc(N3CCCC3=O)c2)ncc1C1CC1)c1cccs1 [Example 47, Thiophene-2-carboxylic acid (3-{5-cyclopropyl-2-[3-(2-oxo-pyrrolidin-1-yl)-phenylamino]-pyrimidin-4-ylamino}-propyl)-amide. Hydrochloride salt] |  |  |  |  |  |  | 76 | 68 | 98 | 89 | 124 | 111 | 84 | 70 | 77 | 85 | 81 | 78 | 97 | 77 | 
4 | O=C(NCCCNc1nc(Nc2cccnc2)ncc1C1CC1)c1cccs1 [Example 50, Thiophene-2-carboxylic acid {3-[5-cyclopropyl-2-(pyridin-3-ylamino)-pyrimidin-4-ylamino]-propyl}-amide] |  |  |  |  |  |  | 68 | 58 | 102 | 66 | 164 | 120 | 73 | 33 | 78 | 50 | 84 | 57 | 93 | 80 | 
